Experimental findings from patent US12447151B2, “Alkyne derivative, preparation method for same, and uses thereof” (ZHEJIANG HISUN PHARMACEUTICAL CO., LTD., priority 2019, dated 2025) are described below.

Molecules are shown by their SMILES. pIC50: −log10 of the molar value.

As usually defined, the pIC50 is the IC50 on a negative log10 scale, so that one unit is a factor of ten.

In one data set the target is PI3Kα(C2C12) (Mus musculus (Mouse), UniProt P42337). Description: Cell activity of PI3K subtypes, AlphaLISA p-AKT (pS473). The format is cell-based. The settings on record: C2C12 cells, IGF-1 stimulated. From the text:
(§1) The following method was used to determine the degree of inhibition of the compounds of the present invention on activity of PI3Kα, PI3Kβ, PI3Kγ, and PI3Kδ kinase in different cells. The AlphaLISA SureFire Ultra p-AKT1/2/3 (pS473) kit (#ALSU-PAKT-B500) of PE company was used in the method. The above kit used AlphaLISA technology, using donor and acceptor beads to detect the interaction of biomolecules, to detect the content of p-AKT (pS473), reflecting the intensity of inhibition of the compounds on PI3Kα, PI3Kβ, PI3Kγ and PI3Kδ at the cell level. For detailed experimental operations, please refer to the kit instructions.
(§2) The experimental procedure was briefly described as follows: the experiment was carried out in a 384-well plate using a Multidrop dispenser (Thermo, #836-4049), using different cells for different PI3K subtypes (PI3Kα: C2C12 cells (myoblasts); PI3Kβ: PC-3 cells (human prostate cancer cells); PI3Kγ: Raw264.7 cells (monocyte macrophages); PI3Kδ: Raji cells (lymphoma cells)). 6 μL of the corresponding cells were transferred to the wells of a 384-well plate. After centrifugation 500 RPM for 30 seconds, the plate was placed in a 37° C., 5% CO2 incubator for 2 hours. The test compound was first dissolved in DMSO to prepare a 10 mM stock solution, which was diluted 4-fold with DMSO. 30 nL was transferred by Echo (Labcyte, #550) to each well (final concentration is 10000 nM-0.2 nM), and incubated for 30 minutes. Then for C2C12 cells used for PI3Kα subtype, 2 uL IGF-1 (R&D, #291-G1-200, final concentration 1200 ng/mL) was added and incubated for 20 minutes. For PC-3 cells used for PI3Kβ subtype, 2 μL LPA (Sigma, #L7260, final concentration 15 ug/mL) was added and incubated for 20 minutes. For Raw264.7 cells used for PI3Kγ subtype, 2 uL C5a (Biotang, #RPR9899, final concentration 80 ng/mL) was added and incubated for 5 minutes. For Raji cells used for PI3Kδ subtype, 2 μL IgM (Jackson ImmunoResearch, #109-006-129, final concentration 3 ug/mL) was added and incubated for 10 minutes. After the incubation, AlphaLISA SureFire Ultra p-AKT1/2/3(pS473) kit was used to determine the AlphaLISA signal. The kit determination method was briefly described as follows: 20 μL Lysis Buffer was used to lyse the cells for 10 minutes. Then 5 uL acceptor mix and 5 uL donor mix were added to a 384-well plate. The plate was incubated with shaking at room temperature for 2 hours. Envision (PE, #2104) was used to read AlphaLISA signal. By comparing with the signal intensity ratio of the control group (0.5% DMSO), the percentage inhibition rate of the compound at each concentration was calculated. The GraphPad Prism 5 software was used to perform nonlinear regression analysis of the compound concentration logarithmic value vs. the inhibition rate to obtain the IC50 values of the compounds, shown in Table 3.

The target in the next data set is PI3Kβ(PC-3) (Homo sapiens (Human), UniProt P42338). The description is as above. In kind it is cell-based. The settings on record: PC-3 cells, LPA stimulated.
Sequence of PI3Kβ(PC-3) (P42338 whole entry): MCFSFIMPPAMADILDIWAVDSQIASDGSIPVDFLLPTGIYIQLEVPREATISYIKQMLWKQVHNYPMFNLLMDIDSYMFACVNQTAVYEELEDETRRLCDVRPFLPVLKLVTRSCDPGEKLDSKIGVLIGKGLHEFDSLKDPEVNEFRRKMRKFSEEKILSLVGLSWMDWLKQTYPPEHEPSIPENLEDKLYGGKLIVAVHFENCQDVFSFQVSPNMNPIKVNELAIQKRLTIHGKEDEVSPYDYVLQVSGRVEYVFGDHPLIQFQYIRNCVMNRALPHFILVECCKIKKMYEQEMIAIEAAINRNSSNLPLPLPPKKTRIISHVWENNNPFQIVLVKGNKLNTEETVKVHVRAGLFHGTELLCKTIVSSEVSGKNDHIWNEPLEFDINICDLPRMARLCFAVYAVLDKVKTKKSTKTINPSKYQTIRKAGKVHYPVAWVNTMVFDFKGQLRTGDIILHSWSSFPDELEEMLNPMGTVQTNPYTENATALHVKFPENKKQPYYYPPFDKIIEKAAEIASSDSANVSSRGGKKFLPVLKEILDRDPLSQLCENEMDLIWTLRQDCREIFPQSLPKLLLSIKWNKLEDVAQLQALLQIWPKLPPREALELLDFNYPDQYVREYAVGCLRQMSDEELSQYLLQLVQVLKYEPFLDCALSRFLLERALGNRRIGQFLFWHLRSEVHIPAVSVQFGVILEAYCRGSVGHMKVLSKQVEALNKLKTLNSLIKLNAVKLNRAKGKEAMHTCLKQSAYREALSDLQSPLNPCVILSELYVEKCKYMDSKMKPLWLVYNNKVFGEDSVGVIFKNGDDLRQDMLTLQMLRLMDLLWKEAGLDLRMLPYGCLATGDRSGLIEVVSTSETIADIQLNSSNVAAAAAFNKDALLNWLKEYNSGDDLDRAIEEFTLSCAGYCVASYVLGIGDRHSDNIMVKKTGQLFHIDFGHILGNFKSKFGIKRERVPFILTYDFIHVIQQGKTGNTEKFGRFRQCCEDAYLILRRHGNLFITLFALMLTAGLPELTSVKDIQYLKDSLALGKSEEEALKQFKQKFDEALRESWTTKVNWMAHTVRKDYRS
Sequence of PI3Kβ(PC-3) (P27986 whole entry partner): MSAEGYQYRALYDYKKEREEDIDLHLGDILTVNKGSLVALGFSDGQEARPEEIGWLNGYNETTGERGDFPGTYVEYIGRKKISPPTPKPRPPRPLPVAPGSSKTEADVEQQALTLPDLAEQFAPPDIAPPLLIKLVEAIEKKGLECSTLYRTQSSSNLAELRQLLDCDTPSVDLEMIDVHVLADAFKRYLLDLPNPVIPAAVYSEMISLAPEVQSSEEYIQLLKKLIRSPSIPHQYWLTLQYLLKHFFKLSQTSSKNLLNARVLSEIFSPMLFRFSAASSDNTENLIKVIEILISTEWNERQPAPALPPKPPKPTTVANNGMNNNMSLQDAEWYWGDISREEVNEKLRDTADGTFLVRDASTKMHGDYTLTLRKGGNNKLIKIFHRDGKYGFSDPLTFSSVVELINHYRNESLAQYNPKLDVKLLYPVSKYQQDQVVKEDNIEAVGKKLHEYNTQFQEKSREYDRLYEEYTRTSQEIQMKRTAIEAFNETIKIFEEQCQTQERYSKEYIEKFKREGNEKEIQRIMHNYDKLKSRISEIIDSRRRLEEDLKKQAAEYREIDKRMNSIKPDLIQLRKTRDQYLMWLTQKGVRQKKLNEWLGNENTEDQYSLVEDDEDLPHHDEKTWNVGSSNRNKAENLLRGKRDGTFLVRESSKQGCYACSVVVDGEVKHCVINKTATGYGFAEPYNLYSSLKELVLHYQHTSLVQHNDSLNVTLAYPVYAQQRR
Source text: as §1, §2

In a further data set the target is PI3Kγ(Raw264.7) (Mus musculus (Mouse), UniProt Q9JHG7). Described as above. In kind it is cell-based.
Sequence of PI3Kγ(Raw264.7) (Q9JHG7 whole entry): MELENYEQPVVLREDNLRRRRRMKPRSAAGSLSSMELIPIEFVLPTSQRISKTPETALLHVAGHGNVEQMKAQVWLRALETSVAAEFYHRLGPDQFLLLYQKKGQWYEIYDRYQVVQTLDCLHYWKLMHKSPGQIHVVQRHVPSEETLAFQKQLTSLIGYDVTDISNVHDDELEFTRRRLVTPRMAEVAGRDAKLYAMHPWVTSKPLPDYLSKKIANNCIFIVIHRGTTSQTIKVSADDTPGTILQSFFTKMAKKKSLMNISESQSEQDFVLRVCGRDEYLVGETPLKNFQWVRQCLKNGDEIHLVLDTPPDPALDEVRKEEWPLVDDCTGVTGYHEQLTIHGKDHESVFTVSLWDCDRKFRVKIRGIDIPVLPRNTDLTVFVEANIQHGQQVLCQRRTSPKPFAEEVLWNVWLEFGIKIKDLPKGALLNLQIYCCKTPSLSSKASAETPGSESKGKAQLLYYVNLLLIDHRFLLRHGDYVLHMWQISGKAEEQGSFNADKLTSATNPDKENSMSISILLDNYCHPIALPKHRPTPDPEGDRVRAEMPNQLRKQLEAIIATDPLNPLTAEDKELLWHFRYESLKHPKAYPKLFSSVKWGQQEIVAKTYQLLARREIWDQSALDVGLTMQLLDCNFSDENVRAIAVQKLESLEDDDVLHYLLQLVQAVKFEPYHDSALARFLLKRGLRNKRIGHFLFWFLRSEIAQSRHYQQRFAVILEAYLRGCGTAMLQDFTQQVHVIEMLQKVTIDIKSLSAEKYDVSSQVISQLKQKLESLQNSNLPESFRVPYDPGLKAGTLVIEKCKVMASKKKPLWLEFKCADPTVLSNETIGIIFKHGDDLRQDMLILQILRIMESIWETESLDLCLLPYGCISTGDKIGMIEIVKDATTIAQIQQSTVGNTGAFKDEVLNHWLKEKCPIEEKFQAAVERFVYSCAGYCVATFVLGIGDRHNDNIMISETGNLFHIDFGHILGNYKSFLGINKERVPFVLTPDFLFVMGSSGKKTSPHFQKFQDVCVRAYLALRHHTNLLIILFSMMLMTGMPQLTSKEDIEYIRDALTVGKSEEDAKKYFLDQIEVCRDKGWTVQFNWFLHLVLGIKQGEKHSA
Sequence of PI3Kγ(Raw264.7) (Q5SW28 whole entry partner): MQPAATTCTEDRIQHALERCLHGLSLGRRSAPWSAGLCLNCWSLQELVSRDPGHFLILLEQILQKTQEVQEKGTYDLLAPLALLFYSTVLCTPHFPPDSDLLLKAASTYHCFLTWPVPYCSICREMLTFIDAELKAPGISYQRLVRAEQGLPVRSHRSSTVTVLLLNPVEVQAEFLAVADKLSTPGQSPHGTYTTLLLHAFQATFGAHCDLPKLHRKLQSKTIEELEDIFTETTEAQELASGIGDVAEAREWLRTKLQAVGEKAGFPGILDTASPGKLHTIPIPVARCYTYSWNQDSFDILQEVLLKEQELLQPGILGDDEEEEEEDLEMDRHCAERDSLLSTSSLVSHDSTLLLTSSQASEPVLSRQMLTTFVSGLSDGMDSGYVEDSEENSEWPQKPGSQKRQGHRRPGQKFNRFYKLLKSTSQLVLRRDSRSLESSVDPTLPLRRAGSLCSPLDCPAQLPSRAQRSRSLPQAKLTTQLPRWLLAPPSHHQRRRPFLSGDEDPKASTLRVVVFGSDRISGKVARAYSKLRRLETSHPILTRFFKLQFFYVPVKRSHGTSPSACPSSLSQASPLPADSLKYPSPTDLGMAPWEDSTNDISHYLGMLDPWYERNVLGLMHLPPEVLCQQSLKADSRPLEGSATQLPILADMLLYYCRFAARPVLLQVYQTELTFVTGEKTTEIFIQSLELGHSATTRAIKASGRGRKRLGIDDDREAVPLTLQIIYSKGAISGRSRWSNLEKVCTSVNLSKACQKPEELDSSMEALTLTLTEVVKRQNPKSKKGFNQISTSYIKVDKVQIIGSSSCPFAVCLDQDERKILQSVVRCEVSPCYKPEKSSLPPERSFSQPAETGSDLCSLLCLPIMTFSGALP
Source text: as §1, §2

The next data set has as its target PI3Kδ(Raji) (Homo sapiens (Human), UniProt O00329). The description is as above. The format is cell-based. The settings on record: Raji cells, IgM stimulated.
Source text: as §1, §2

Data set [1] can be described thus: Metabolic stability in liver microsomes. The format is in vitro ADME. The settings on record: human liver microsomes 0.5 mg/mL, 1 μM compound, NADPH 1 mM; read-out: half-life period/(T1/2, min). How it is done: The test compound was co-incubated with human liver microsomes, and coenzyme NADPH was added to initiate the reaction. At 0, 5, 15, 30 and 60 minutes, 20 μL of incubation solution was taken out and transferred to 200 μL of acetonitrile containing internal standard to stop the reaction. After protein precipitation, centrifugation was performed at 3,700 rpm for 10 minutes and the supernatant was taken. The supernatant was diluted 1:1 with water and analyzed by LC-MS/MS method. According to the elimination half-life of the test compound in the incubation system, the in vitro intrinsic clearance rate was calculated. Midazolam was used as the internal reference compound and incubated for two aliquots in parallel.
The ratio of peak area of the analyte/internal standard (Aanalyte/AIS) was obtained by the instrument. The remaining percentage (% Control) was calculated from the ratio of Aanalyte/AIS in the non-zero time point sample to the zero time point sample. Ln (% Control) versus incubation time was plotted and a linear fit was performed. The clearance constant (k, min^−1), the clearance half-life (T1/2, min) and the in vitro intrinsic clearance rate (CLint, mL·min^−1·mg^−1 proteins) of the test compound were calculated by the following equations.
Cprotein(mg·mL^−1) refers to the concentration of microsomal protein in the incubation system.
(In general: Microsomes from liver hold many membrane-bound enzymes, among them those of drug oxidation.)

The target in the next data set is recombinant human PI3Kβ (Homo sapiens (Human), UniProt P42338). In words: Inhibitory activity on PI3K kinase (ADP-Glo Kinase Assay). (In general: In ADP-Glo the light output rises with the ADP produced.)
Sequence of recombinant human PI3Kβ (P42338 whole entry): as the sequence (P42338 whole entry) above
Sequence of recombinant human PI3Kβ (P27986 whole entry partner): as the sequence (P27986 whole entry partner) above
A further data set deals with recombinant human PI3Kδ (Homo sapiens (Human), UniProt O00329). The description is as above.
Sequence of recombinant human PI3Kδ (O00329 whole entry): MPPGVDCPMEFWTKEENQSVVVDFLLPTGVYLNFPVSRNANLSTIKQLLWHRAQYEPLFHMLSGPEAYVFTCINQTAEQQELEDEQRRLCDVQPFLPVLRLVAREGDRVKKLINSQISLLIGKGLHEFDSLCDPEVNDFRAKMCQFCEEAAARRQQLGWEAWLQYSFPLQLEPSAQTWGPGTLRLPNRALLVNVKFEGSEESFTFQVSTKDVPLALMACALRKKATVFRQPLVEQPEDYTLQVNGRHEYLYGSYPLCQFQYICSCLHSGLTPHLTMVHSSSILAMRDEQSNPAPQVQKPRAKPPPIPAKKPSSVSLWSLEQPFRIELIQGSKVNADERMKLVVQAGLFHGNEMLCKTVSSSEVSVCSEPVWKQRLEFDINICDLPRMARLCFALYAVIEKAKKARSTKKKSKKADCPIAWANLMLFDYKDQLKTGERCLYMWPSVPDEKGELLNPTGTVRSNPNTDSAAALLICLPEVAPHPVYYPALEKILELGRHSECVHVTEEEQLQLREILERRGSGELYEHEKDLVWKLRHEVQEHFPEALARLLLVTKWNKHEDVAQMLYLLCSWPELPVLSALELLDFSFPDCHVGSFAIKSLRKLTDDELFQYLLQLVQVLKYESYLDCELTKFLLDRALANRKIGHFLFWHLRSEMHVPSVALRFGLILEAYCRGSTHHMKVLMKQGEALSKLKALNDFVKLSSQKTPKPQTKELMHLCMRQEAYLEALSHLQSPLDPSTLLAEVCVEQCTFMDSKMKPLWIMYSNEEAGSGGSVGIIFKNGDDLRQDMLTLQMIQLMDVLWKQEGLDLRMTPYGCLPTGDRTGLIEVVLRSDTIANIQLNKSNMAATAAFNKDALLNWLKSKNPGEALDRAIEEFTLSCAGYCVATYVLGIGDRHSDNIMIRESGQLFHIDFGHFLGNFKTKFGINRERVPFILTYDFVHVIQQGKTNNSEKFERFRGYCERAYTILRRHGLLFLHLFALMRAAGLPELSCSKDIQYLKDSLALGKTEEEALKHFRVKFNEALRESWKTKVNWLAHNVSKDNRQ
Sequence of recombinant human PI3Kδ (P27986 whole entry partner): as the sequence (P27986 whole entry partner) above

Sequence of PI3Kδ(Raji) (O00329 whole entry): as the sequence (O00329 whole entry) above
Sequence of PI3Kδ(Raji) (P27986 whole entry partner): as the sequence (P27986 whole entry partner) above
Source text for recombinant human PI3Kβ: (§3) The following method is used to determine the degree of inhibition of recombinant human PI3Kα, PI3Kβ, PI3Kγ and PI3Kδ kinase activity by the compounds of the present invention under in vitro conditions. Promega's ADP-Glo Kinase Assay Kit (Cat. No. V9102) was used in this method. The above kit was a luminescence kinase detection kit, which was used to detect the ADP content produced by the kinase reaction. The ADP content was positively correlated with the kinase activity. By measuring the ADP content, the inhibition of the compound on the activity of PI3Kα, PI3Kβ, PI3Kγ and PI3Kδ kinases was reflected. […] Recombinant human PI3Kα, PI3Kγ, and PI3Kδ were purchased from Invitrogen, and PI3Kβ was purchased from Promega (category numbers were PI3Kα: PV4788; PI3Kβ: V1751; PI3Kγ: PV4786 and PI3Kδ: PV6451 separately).
Source text for recombinant human PI3Kδ: as §3

Regarding `C[C@H](NC(=O)c1c(N)nn2cccnc12)c1nc2cccc(C#Cc3cnn(C4CC4)c3)c2c(=O)n1-c1ccccc1` [Example 2, (S)-2-amino-N-(1-(5-((1-cyclopropyl-1H-pyrazol-4-yl)ethynyl)-4-oxo-3-phenyl-3,4-dihydroquinazolin-2-yl)ethyl)pyrazolo[1,5-a]pyrimidine-3-carboxamide], the pIC50 against PI3Kα(C2C12) is 5.32; against PI3Kβ(PC-3), 6.06; against PI3Kγ(Raw264.7) (Raw264.7 cells, C5a stimulated, p-AKT (pS473)), 8.47; against PI3Kδ(Raji) it was 6.45; on recombinant human PI3Kβ, 6.33; at recombinant human PI3Kδ it was 6.72. For the same molecule, the “IC50 (PI3Kα)/IC50(PI3Kγ)” value on PI3Kγ(Raw264.7) (cell selectivity, C2C12 vs Raw264.7) was 1394. For the same molecule, the “IC50 (PI3Kβ)/IC50(PI3Kγ)” value on PI3Kγ(Raw264.7) (cell selectivity, PC-3 vs Raw264.7) was 257. Besides, the “IC50 (PI3Kδ)/IC50(PI3Kγ)” value against PI3Kγ(Raw264.7) (cell selectivity, Raji vs Raw264.7) is 104. For the same molecule, the half-life at 1 μM in data set [1] was 233 min.
